# Source: US9725423B2, “Tetrazolinone compound and applications thereof” (SUMITOMO CHEMICAL COMPANY, LIMITED, priority 2012, dated 2017)
# Tested on: cucumber powdery mildew fungus (Sphaerotheca fuliginea)
# Test: Cucumber powdery mildew control test, foliar spray on cucumber (Test Examples 6, 12, Comparative Test Example)
# Assay type: in vivo
# Settings: 200 ppm, cucumber (SAGAMI HANJIRO), 8 days after inoculation
row,SMILES,area of lesion spots relative to that on an untreated plant [%]
1,"CC(=NOCc1cccc(C)c1-n1nnn(C)c1=O)c1cccc(C(F)(F)F)c1 [1-methyl-4-{2-methyl-6-[1-(3-trifluoromethylphenyl)ethylideneaminooxymethyl]phenyl}-1,4-dihydrotetrazol-5-one]",≥ 70
2,"CC(=NOCc1c(C)cccc1-n1nnn(C)c1=O)c1cccc(C(F)(F)F)c1 [1-{3-methyl-2-[1-(3-trifluoromethylphenyl)ethylideneaminooxymethyl]phenyl}-4-methyl-1,4-dihydrotetrazol-5-one]",≤ 30

# Tested on: diamondback moth (Plutella xylostella)
# Test: Diamondback moth mortality test on sprayed cabbage (Test Example 15)
# Assay type: in vivo
# Settings: 120 h, 20 mL/cup sprayed on cabbage, second-instar larvae, 25° C., after 5 days
# Description: Each of formulations of the present compounds 6, 9, 26, 28, 31, 32, 33, 36, 71, 109, 114, 115, 125, and 149 obtained in Formulation Example 6 was diluted with water so that the concentration of the active ingredient is controlled to 500 ppm to prepare a test spraying solution. Meanwhile, the above test chemical solution was sprayed over three-leaf stage cabbage sowed in a polyethylene cup in the proportion of 20 mL/cup. After drying the chemical solution, stem and leaf portions were cut off and put in a 50 mL cup and five second-instar larvae of diamondback moth (Plutella xylostella) were released, and then the cup was capped. The cup was stored at 25° C. and, after 5 days, the number of surviving worms was counted and mortality was determined by the following equation. Mortality (%)=[(Number of dead insects)/(Number of tested insects)]×100
row,SMILES,mortality at 500 ppm [%]
1,"CC(=NOCc1c(Cl)cccc1-n1nnn(C)c1=O)c1cccc([N+](=O)[O-])c1 [present compound 6, 1-{3-chloro-2-[1-(3-nitrophenyl)ethylideneaminooxymethyl]phenyl}-4-methyl-1,4-dihydrotetrazol-5-one]",≥ 80
2,"CC(=NOCc1c(Cl)cccc1-n1nnn(C)c1=O)c1cccc(OC(F)(F)C(F)F)c1 [present compound 9, 1-(3-chloro-2-{1-[3-(1,1,2,2-tetrafluoroethoxyl)phenyl]ethylideneaminooxymethyl]phenyl}-4-methyl-1,4-dihydrotetrazol-5-one]",≥ 80
3,"Cn1nnn(-c2cccc(Cl)c2CON=C(c2ccccc2)C(F)(F)F)c1=O [present compound 26, 1-[3-chloro-2-(2,2,2-trifluoro-1-phenylethylideneaminooxymethyl)phenyl]-4-methyl-1,4-dihydrotetrazol-5-one]",≥ 80
4,"CC(=NOCc1c(Cl)cccc1-n1nnn(C)c1=O)c1cc(F)cc(F)c1 [present compound 28, 1-{3-chloro-2-[1-(3,5-difluorophenyl)ethylideneaminooxymethyl]phenyl}-4-methyl-1,4-dihydrotetrazol-5-one]",≥ 80
5,"CC(=NOCc1c(C)cccc1-n1nnn(C)c1=O)c1cccc(Cl)c1 [present compound 31, 1-{3-methyl-2-[1-(3-chlorophenyl)ethylideneaminooxymethyl]phenyl}-4-methyl-1,4-dihydrotetrazol-5-one]",≥ 80
6,"CC(=NOCc1c(C)cccc1-n1nnn(C)c1=O)c1cccc(OC(F)(F)F)c1 [present compound 32, 1-{3-methyl-2-[1-(3-trifluoromethoxyphenyl)ethylideneaminooxymethyl]phenyl}-4-methyl-1,4-dihydrotetrazol-5-one]",≥ 80
7,"CC(=NOCc1c(C)cccc1-n1nnn(C)c1=O)c1cccc(OC(F)(F)C(F)F)c1 [present compound 33, 1-(3-methyl-2-{1-[3-(1,1,2,2-tetrafluoroethoxyl)phenyl]ethylideneaminooxymethyl}phenyl)-4-methyl-1,4-dihydrotetrazol-5-one]",≥ 80
8,"CC(=NOCc1c(C)cccc1-n1nnn(C)c1=O)c1ccc2ccccc2c1 [present compound 36, 1-[3-methyl-2-(1-naphthalen-2-ylethylideneaminooxymethyl)phenyl]-4-methyl-1,4-dihydrotetrazol-5-one]",≥ 80
9,"CC(=NOCc1c(C)cccc1-n1nnn(C)c1=O)c1cccc(C)c1 [present compound 71, 1-{3-methyl-2-[1-(3-methylphenyl)ethylideneaminooxymethyl]phenyl}-4-methyl-1,4-dihydrotetrazol-5-one]",≥ 80
10,"CC(=NOCc1c(C)cccc1-n1nnn(C)c1=O)c1cccc(N(C)C)c1 [present compound 109, 1-{2-[1-(3-dimethylaminophenyl)ethylideneaminooxymethyl]-3-methylphenyl}-4-methyl-1,4-dihydrotetrazol-5-one]",≥ 80
11,"CC(=NOCc1c(-n2nnn(C)c2=O)cccc1C(F)(F)F)c1cccc(OC(F)(F)F)c1 [present compound 114, 1-{2-[1-(3-trifluoromethoxyphenyl)ethylideneaminooxymethyl]-3-trifluoromethylphenyl}-4-methyl-1,4-dihydrotetrazol-5-one]",≥ 80
12,"CC(=NOCc1c(-n2nnn(C)c2=O)cccc1C(F)(F)F)c1ccc2c(c1)CCC2 [present compound 115, 1-[2-(1-indan-5-ylethylideneaminooxymethyl)-3-trifluoromethylphenyl]-4-methyl-1,4-dihydrotetrazol-5-one]",≥ 80
13,"CC(=NOCc1c(C2CC2)cccc1-n1nnn(C)c1=O)c1cccc2c1CCC2 [present compound 125, 1-[3-cyclopropyl-2-(1-indan-4-ylethylideneaminooxymethyl)phenyl]-4-methyl-1,4-dihydrotetrazol-5-one]",≥ 80
14,"CC(=NOCc1c(C)cccc1-n1nnn(C)c1=O)c1ccccc1 [present compound 149, 1-[2-(1-phenylethylideneaminooxymethyl)-3-methylphenyl]-4-methyl-1,4-dihydrotetrazol-5-one]",≥ 80
